Reference: patent publication US9301956B2, “Application of cinchona alkaloid derivatives as cytotoxic compounds” (ADAM MICKIEWICZ UNIVERSITY, priority 2014, dated 2016)
≈ marks a conversion by molar mass, not a printed value. Where “and” joins values, the source holds several entries; their conditions need not be identical. Identical values can stand only once. Like-named read-outs stand apart in the source and are kept apart here.

How the values were obtained:
Format in all cases: cell-based
KB (nasopharynx cancer) = experiment: Sulphorhodamine B cytotoxicity test, KB line; details: for IC50: average of three determinations, read-out: Cytotoxic activity, IC50, KB (nasopharynx cancer)
Method: (§1) Cytotoxic activity tests were performed using the following cancer cell lines: MCF-7 (breast cancer), HeLa (cervical cancer) A549 (pulmonary cancer) and KB (nasopharynx cancer) obtained from ECACC (European Collection of Cell Cultures). Cytotoxicity tests were carried out using a standard procedure with sulphorhodamine B. They involved incubation of the cancer cell lines in the logarithmic growth phase for 72 hours with the compound tested and, subsequently, spectrophotometric determination of the degree of cell growth inhibition using adsorption of a dye (sulphorhodamine B) which binds cellular proteins. The determination was carried out according to a procedure reported in: Vichai, V., Kirtikara, K. Nature Protocols, 2006, 1, 1112. […] Solutions of the test compounds were prepared in DMSO in the following concentration range: 0.05; 0.1; 0.5; 1; 5; 10; 50; 100 μM. The cells of the lines tested were treated with the solutions of the test compounds in a laminar-flow chamber which ensured sterile working conditions according to the following procedure: the first three wells were used as a control: they contained 20 μL of DMSO only; successive solutions of the test compound were added to subsequent wells (20 μL), starting with the lowest concentration (three wells for each concentration level). Subsequently, the plates were placed in an incubator for 72 hours. After the end of incubation, the adhered cells were fixed by adding 500 μL of cold (4° C.) 50% trichloroacetic acid (TCA) and incubated at 4° C. for 1 hour. Subsequently, each well was rinsed with sterile water and dried. The operation was repeated five times. The fixed cells were stained for 30 minutes by adding 500 μL of 0.4% of a dye solution (sulphorhodamine B) dissolved in 1% acetic acid. […] Subsequently, the plates were dried in air for approx. 5 minutes. Any unbound dye was dissolved by adding 1500 μL of […] Tris-base buffer (trishydroxymethylaminomethane) to each well and shaken using an orbital shaker for 5 minutes. […] Depending on the type of the cell line, the following growth media were used: • the MCF-7 line was grown in Dulbecco's Modified Eagle's Medium (DME) from Sigma (cat. no. […] R8758).

MCF-7 (breast cancer) = experiment: Sulphorhodamine B cytotoxicity test, MCF-7 line; details: for IC50: Homo sapiens, MCF7, 72 h incubation, SRB
Method: as §1

HeLa (cervical cancer) = experiment: Sulphorhodamine B cytotoxicity test, HeLa line; details: for IC50: Homo sapiens, HeLa
Method: as §1

A549 (lung cancer) = experiment: Sulphorhodamine B cytotoxicity test, A549 line; details: for IC50: Homo sapiens
Method: as §1

[1] = test system: cancer cell lines of breast cancer, cervical cancer, lung cancer and nasopharynx cancer; experiment: Sulphorhodamine B cytotoxicity test, cancer cell lines overall (line not specified)
Method: Cytotoxic activity tests were performed using the following cancer cell lines: MCF-7 (breast cancer), HeLa (cervical cancer) A549 (pulmonary cancer) and KB (nasopharynx cancer) obtained from ECACC (European Collection of Cell Cultures).
Cytotoxicity tests were carried out using a standard procedure with sulphorhodamine B. They involved incubation of the cancer cell lines in the logarithmic growth phase for 72 hours with the compound tested and, subsequently, spectrophotometric determination of the degree of cell growth inhibition using adsorption of a dye (sulphorhodamine B) which binds cellular proteins. The determination was carried out according to a procedure reported in: Vichai, V., Kirtikara, K. Nature Protocols, 2006, 1, 1112.
Cancerous cells of the cell line tested in the logarithmic growth phase were seeded onto 24-well plates in a quantity of 20,000 cells/2 mL of the growth medium per well and, subsequently, incubated in an incubator at 37° C., in the 5% CO2 atmosphere for 24 hours. […]
After the end of incubation, the adhered cells were fixed by adding 500 μL of cold (4° C.) 50% trichloroacetic acid (TCA) and incubated at 4° C. for 1 hour. […] Subsequently, 200 μL of solution from each well was transferred to each of two wells on a new 96-well plate and absorption of the solutions was determined spectrophotometrically at a wavelength of 490-530 nm using a plate reader. […]

[2] = average of three determinations, read-out: Cytotoxic activity, IC50, MCF-7 line (breast cancer)
[3] = 72 h incubation, SRB, average of three determinations, read-out: Cytotoxic activity, IC50, HeLa (cervical cancer)
[4] = A549, 72 h incubation, SRB, average of three determinations, read-out: Cytotoxic activity, IC50, A549 (lung cancer)

## O=c1[nH]c(=O)n([C@H]2C[C@H](O)[C@@H](CO)O2)cc1F [5-fluoro-2′-deoxyuridine]
KB (nasopharynx cancer); 72 h incubation, SRB
  IC50: 3.37 µg/mL and 13.7 µM
MCF-7 (breast cancer); [2]
  IC50: 2.81 µg/mL and 11.4 µM
HeLa (cervical cancer); [3]
  IC50: 3.2 µg/mL and 13 µM
A549 (lung cancer); [4]
  IC50: 3.3 µg/mL and 13.4 µM

## O=c1[nH]cc(F)c(=O)[nH]1 [5-fluorouracil]
KB (nasopharynx cancer); 72 h incubation, SRB
  IC50: 2.86 µg/mL and 22 µM
MCF-7 (breast cancer); [2]
  IC50: 2.37 µg/mL and 18.2 µM
HeLa (cervical cancer); [3]
  IC50: 2.73 µg/mL and 21 µM
A549 (lung cancer); [4]
  IC50: 2.78 µg/mL and 21.4 µM

## C=C[C@H]1C[N@@]2CC[C@H]1C[C@@H]2[C@@H](O)c1ccnc2ccccc12 [cinchonine]
MCF-7 (breast cancer); read-out: Cytotoxic activity class, MCF-7 line (breast cancer)
  IC50: 4 to 30 µg/mL (≈ 13.6 to 102 µM)
HeLa (cervical cancer); 72 h, read-out: Cytotoxic activity class, HeLa (cervical cancer)
  IC50: 4 to 30 µg/mL (≈ 13.6 to 102 µM)
A549 (lung cancer); A549, 72 h, read-out: Cytotoxic activity class, A549 (lung cancer)
  IC50: 4 to 30 µg/mL (≈ 13.6 to 102 µM)

## C#CCO[C@@H](c1ccnc2ccccc12)[C@H]1C[C@@H]2CCN1C[C@@H]2C=C [PCN, 9-O-propargylcinchonine]
[1]
  in vitro cytotoxicity against cancer cell lines: within the range of high activity
KB (nasopharynx cancer); 72 h incubation, SRB
  Cytotoxic activity class, KB (nasopharynx cancer): (A) (IC50<4 μg/mL are generally assumed as active (abbreviated as A))
KB (nasopharynx cancer); KB (nasopharynx cancer), relative to 5FU
  times as high activity compared to 5FU: 2.3 times
KB (nasopharynx cancer); KB (nasopharynx cancer), relative to 5 FdU
  times as high activity compared to 5 FdU: 1.4 times
MCF-7 (breast cancer); MCF-7 line, relative to 5FU
  times as cytotoxic as 5FU: more than two times
MCF-7 (breast cancer); MCF-7 line, relative to 5 FdU
  times as active as 5 FdU: 1.3 times
HeLa (cervical cancer); HeLa (cervical cancer), relative to 5FU
  times as cytotoxic as 5FU: two times
HeLa (cervical cancer); HeLa (cervical cancer), relative to 5 FdU
  times as cytotoxic as 5 FdU: 1.2 times
A549 (lung cancer); A549 (pulmonary cancer), relative to 5FU
  times as cytotoxic as 5FU: more than 1.8 times
A549 (lung cancer); A549 (pulmonary cancer), relative to 5 FdU
  cytotoxicity compared with 5 FdU: slightly more cytotoxic
